In ChEMBL document CHEMBL3885861, “Open TG-GATES”:

Species: Rattus norvegicus
Test: Open TG-GATES - Regimen: Single
Type: toxicity, organism-based, Sprague-Dawley
Parameters: regimen Single, gender Male, age 6 weeks
Settings: in vivo, po, route gavage; for gamma-GTP / ALP / ALT / AST / BUN / CRE / DBIL / GLC / K / LDH / Na / PL / RALB / TBIL / TC / TG / TP: tissue Plasma; for APTT / Bas / Eos / Fbg / Hb / Ht / Lym / MCHC / MCV / Mono / PT / Plat / RBC / Ret / WBC: tissue Blood; for KIDNEY_L / KIDNEY_R / KIDNEY_TOTAL: tissue Kidney; for LIVER: tissue Liver
[1] = 1200 mg/kg, 3 h, dose level Middle
[2] = 1200 mg/kg, 6 h, dose level Middle
[3] = 1200 mg/kg, 9 h, dose level Middle
[4] = 1200 mg/kg, 24 h, dose level Middle
[5] = 2000 mg/kg, 3 h, dose level High
[6] = 2000 mg/kg, 6 h, dose level High
[7] = 2000 mg/kg, 9 h, dose level High
[8] = 2000 mg/kg, 24 h, dose level High

## O=C1NC(=O)C(c2ccccc2)(c2ccccc2)N1 [PHENYTOIN]
600 mg/kg, 24 h, dose level Low
  gamma-GTP: 1 IU/L
[1]
  TERMINAL_BW: 211.8 g
  APTT: 16.7 s
  Bas: 0.2%
  Eos: 1%
  Fbg: 284.4 mg/dL
  Hb: 13 g/dL
  Ht: 38.7%
  Lym: 75.2%
  MCHC: 33.6%
  MCV: 62.4 fL
  Mono: 3.4%
  PT: 13.8 s
  Plat: 122.5 x10_4/uL
  RBC: 621.4 x10_4/ul
  Ret: 8.4%
  KIDNEY_L: 0.9 g
  KIDNEY_R: 0.9 g
  KIDNEY_TOTAL: 1.8 g
  LIVER: 9.3 g
  ALP: 1502.4 IU/L
  ALT: 35.2 IU/L
  AST: 70.6 IU/L
  BUN: 10.2 mg/dL
  CRE: 0.2 mg/dL
  DBIL: 0.016 mg/dL
  GLC: 191.4 mg/dL
  K: 4 meq/L
  LDH: 98.2 IU/L
  Na: 142.2 meq/L
  PL: 146.8 mg/dL
  RALB: 2.5 g/dL
  TBIL: 0.052 mg/dL
  TC: 75.6 mg/dL
  TG: 74 mg/dL
  TP: 5.4 g/dL
  gamma-GTP: 1.2 IU/L
[2]
  TERMINAL_BW: 207.5 g
  APTT: 18 s
  Bas: 0.4%
  Eos: 1%
  Fbg: 279.4 mg/dL
  Hb: 13 g/dL
  Ht: 38.7%
  Lym: 73.2%
  MCHC: 33.7%
  MCV: 61.9 fL
  Mono: 3%
  PT: 14.5 s
  RBC: 625.6 x10_4/ul
  Ret: 8.2%
  WBC: 94.4 x10_2/uL
  KIDNEY_L: 0.9 g
  KIDNEY_R: 0.9 g
  KIDNEY_TOTAL: 1.9 g
  LIVER: 8.7 g
  ALP: 1256.2 IU/L
  ALT: 35.8 IU/L
  AST: 74.8 IU/L
  BUN: 7.8 mg/dL
  CRE: 0.2 mg/dL
  DBIL: 0.016 mg/dL
  GLC: 187 mg/dL
  K: 3.7 meq/L
  LDH: 77 IU/L
  Na: 143.4 meq/L
  PL: 141.4 mg/dL
  RALB: 2.5 g/dL
  TBIL: 0.058 mg/dL
  TC: 76.8 mg/dL
  TG: 30.6 mg/dL
  TP: 5.4 g/dL
  gamma-GTP: 1.2 IU/L
[3]
  TERMINAL_BW: 206.4 g
  APTT: 15.4 s
  Bas: 0.4%
  Eos: 1%
  Fbg: 297 mg/dL
  Hb: 13.1 g/dL
  Ht: 38.9%
  Lym: 78.6%
  MCHC: 33.6%
  MCV: 62.8 fL
  Mono: 2%
  PT: 14.1 s
  Plat: 112.1 x10_4/uL
  RBC: 619.2 x10_4/ul
  Ret: 7.6%
  WBC: 69.7 x10_2/uL
  KIDNEY_L: 0.9 g
  KIDNEY_R: 0.9 g
  KIDNEY_TOTAL: 1.8 g
  LIVER: 8 g
  ALP: 1378 IU/L
  ALT: 27.2 IU/L
  AST: 71 IU/L
  BUN: 7.4 mg/dL
  CRE: 0.2 mg/dL
  DBIL: 0.016 mg/dL
  GLC: 194 mg/dL
  K: 4.1 meq/L
  LDH: 70.8 IU/L
  Na: 142.2 meq/L
  PL: 148.8 mg/dL
  RALB: 2.6 g/dL
  TBIL: 0.058 mg/dL
  TC: 80 mg/dL
  TG: 29.8 mg/dL
  TP: 5.6 g/dL
  gamma-GTP: 1 IU/L
[4]
  TERMINAL_BW: 211.5 g
  APTT: 16.7 s
  Bas: 0.2%
  Eos: 1.2%
  Fbg: 278.6 mg/dL
  Hb: 13.6 g/dL
  Ht: 40%
  Lym: 78.6%
  MCHC: 33.9%
  MCV: 61.9 fL
  Mono: 2.4%
  PT: 14.3 s
  Plat: 118.4 x10_4/uL
  RBC: 646.4 x10_4/ul
  Ret: 7.1%
  WBC: 94.4 x10_2/uL
  KIDNEY_L: 1 g
  KIDNEY_R: 1 g
  KIDNEY_TOTAL: 1.9 g
  LIVER: 8.6 g
  ALP: 1604.8 IU/L
  ALT: 29 IU/L
  AST: 66.2 IU/L
  BUN: 10 mg/dL
  CRE: 0.2 mg/dL
  DBIL: 0.02 mg/dL
  GLC: 175.4 mg/dL
  K: 4.2 meq/L
  LDH: 102.4 IU/L
  Na: 142.4 meq/L
  PL: 126.6 mg/dL
  RALB: 2.5 g/dL
  TBIL: 0.042 mg/dL
  TC: 66.8 mg/dL
  TG: 52.4 mg/dL
  TP: 5.4 g/dL
  gamma-GTP: 1 IU/L
[5]
  TERMINAL_BW: 211 g
  APTT: 19.4 s
  Bas: 0.2%
  Eos: 1%
  Fbg: 266.2 mg/dL
  Hb: 13.1 g/dL
  Ht: 38.8%
  Lym: 77.6%
  MCHC: 33.6%
  MCV: 61.9 fL
  Mono: 3.4%
  PT: 14.1 s
  Plat: 118.3 x10_4/uL
  RBC: 626.4 x10_4/ul
  Ret: 8.3%
  WBC: 94.8 x10_2/uL
  KIDNEY_L: 0.9 g
  KIDNEY_R: 0.9 g
  KIDNEY_TOTAL: 1.8 g
  LIVER: 8.7 g
  ALP: 1674 IU/L
  ALT: 37.8 IU/L
  AST: 76 IU/L
  BUN: 10.2 mg/dL
  CRE: 0.2 mg/dL
  DBIL: 0.012 mg/dL
  GLC: 185.6 mg/dL
  K: 3.9 meq/L
  LDH: 78.4 IU/L
  Na: 141.4 meq/L
  PL: 137.8 mg/dL
  RALB: 2.5 g/dL
  TBIL: 0.058 mg/dL
  TC: 72 mg/dL
  TG: 41.8 mg/dL
  TP: 5.4 g/dL
  gamma-GTP: 1.2 IU/L
[6]
  TERMINAL_BW: 208.6 g
  APTT: 16.1 s
  Bas: 0.2%
  Eos: 0.8%
  Fbg: 289 mg/dL
  Hb: 13.1 g/dL
  Ht: 39.2%
  Lym: 79.2%
  MCHC: 33.4%
  MCV: 61.4 fL
  Mono: 2.4%
  PT: 14.3 s
  RBC: 637.2 x10_4/ul
  Ret: 7.9%
  WBC: 80.1 x10_2/uL
  KIDNEY_L: 1 g
  KIDNEY_R: 0.9 g
  KIDNEY_TOTAL: 1.9 g
  LIVER: 8.5 g
  ALP: 1539.4 IU/L
  ALT: 32 IU/L
  AST: 71.8 IU/L
  BUN: 8.6 mg/dL
  CRE: 0.2 mg/dL
  DBIL: 0.016 mg/dL
  GLC: 186.4 mg/dL
  K: 3.8 meq/L
  LDH: 94.8 IU/L
  Na: 142.2 meq/L
  PL: 139.6 mg/dL
  RALB: 2.5 g/dL
  TBIL: 0.058 mg/dL
  TC: 74.2 mg/dL
  TG: 26 mg/dL
  TP: 5.4 g/dL
  gamma-GTP: 1.4 IU/L
[7]
  TERMINAL_BW: 209.1 g
  APTT: 15.5 s
  Bas: 0.4%
  Eos: 1%
  Fbg: 295.6 mg/dL
  Hb: 12.9 g/dL
  Ht: 38.7%
  Lym: 77.6%
  MCHC: 33.4%
  MCV: 61.4 fL
  Mono: 1.6%
  PT: 14 s
  Plat: 122 x10_4/uL
  RBC: 631.4 x10_4/ul
  Ret: 8%
  WBC: 93 x10_2/uL
  KIDNEY_L: 0.9 g
  KIDNEY_R: 0.9 g
  KIDNEY_TOTAL: 1.8 g
  LIVER: 7.6 g
  ALP: 1420.6 IU/L
  ALT: 31.6 IU/L
  AST: 74.6 IU/L
  BUN: 7.8 mg/dL
  CRE: 0.2 mg/dL
  DBIL: 0.016 mg/dL
  GLC: 182.2 mg/dL
  K: 3.9 meq/L
  LDH: 83.2 IU/L
  Na: 141.8 meq/L
  PL: 124 mg/dL
  RALB: 2.6 g/dL
  TBIL: 0.062 mg/dL
  TC: 66 mg/dL
  TG: 23.2 mg/dL
  TP: 5.5 g/dL
  gamma-GTP: 1.8 IU/L
[8]
  TERMINAL_BW: 203.9 g
  APTT: 17 s
  Bas: 0%
  Eos: 1%
  Fbg: 279.2 mg/dL
  Hb: 13.8 g/dL
  Ht: 40.9%
  Lym: 75.4%
  MCHC: 33.7%
  MCV: 62.5 fL
  Mono: 2.2%
  PT: 14.3 s
  Plat: 121.4 x10_4/uL
  RBC: 654.4 x10_4/ul
  Ret: 7.7%
  WBC: 89.2 x10_2/uL
  KIDNEY_L: 1 g
  KIDNEY_R: 1 g
  KIDNEY_TOTAL: 1.9 g
  LIVER: 8 g
  ALP: 1411 IU/L
  ALT: 25.2 IU/L
  AST: 66 IU/L
  BUN: 9.8 mg/dL
  CRE: 0.2 mg/dL
  DBIL: 0.014 mg/dL
  GLC: 174.8 mg/dL
  K: 4.3 meq/L
  LDH: 77 IU/L
  Na: 141.8 meq/L
  PL: 124.8 mg/dL
  RALB: 2.6 g/dL
  TBIL: 0.052 mg/dL
  TC: 67.6 mg/dL
  TG: 38 mg/dL
  TP: 5.7 g/dL
  gamma-GTP: 1.2 IU/L
